Source: PubChem BioAssay AID977624 (Broad Institute, 2014)
Results filed as inconclusive are left out. Active and inactive are the calls of the source.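 How the source made its calls: active means compound lowering the normal-ribosome reporter at least twice as much as the humanized-ribosome reporter, growth loss under a set limit; inconclusive means no clear call, values can overlap the other calls; inactive means the rest.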

What was measured:
Experiment in all cases: growth inhibition of wild-type GFP E. coli, dose response, h34 mutant RFP, cherry-pick (AID 977624);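 further: wild-type GFP strain co-cultured with humanized h34 ribosome RFP strain in same well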
[1] = system: E. coli h34 humanized ribosome mutant RFP strain growth, fluorescence, 24 h
[2] = system: E. coli mixed culture (wild-type GFP + h34 RFP) total growth, OD600, 24 h; conditions: E. coli mixed culture (wild-type GFP + h34 RFP), 24 h
[3] = system: E. coli wild-type GFP strain growth, fluorescence, 24 h
[4] = measured here: total OD600 growth

`COc1ccc(NC(=O)c2cccs2)cc1C(=O)N1CCN(c2ccccc2)CC1` gave an AC50 [1] greater than 100 µM.
For `COc1ccccc1-c1nnc(C2CCN(S(=O)(=O)c3ccccc3[N+](=O)[O-])CC2)o1`, the AC50 [2, 4] was greater than 100 µM and the AC50 [3] was > 100 µM (inactive).
`Cc1ccc(NS(=O)(=O)c2cc(C(=O)N3CCc4ccccc4C3)ccc2Cl)cc1` was tested, and the AC50 [1] was 32.6 µM and the AC50 [3] was > 100 µM (inactive).
For `CCC1=Nc2cc(C(=O)NCc3cccnc3)ccc2Sc2ccc(C)cc21`, the AC50 [1] was 32.6 µM and the AC50 [3] was > 100 µM (inactive).
`O=C(O)c1cccnc1SCc1ccccc1Cl` was tested, and the AC50 [2, 4] was greater than 100 µM and the AC50 [3] was > 100 µM (inactive).
In the case of `O=C(Nc1cccc(Cl)c1)c1ccc(S(=O)(=O)NCC2CCCO2)cc1` (stereo not given), the AC50 [1] is reported as 1.4 µM and the AC50 [3] is reported as > 100 µM (inactive).
In the case of `O=C1NC(CCc2ccccc2)C(=O)N1Cc1cccc2ccccc12` (stereo not given), the AC50 [2, 4] is reported as greater than 100 µM and the AC50 [3] is reported as > 100 µM (inactive).
With `CS(=O)(=O)Nc1ccccc1C(=O)NCCSc1ccccc1` the AC50 [1] was 51.2 µM.
With `CCOc1ccccc1N(CC(=O)Nc1ccccc1F)S(=O)(=O)c1ccccc1` the AC50 [1] was 52.1 µM and the AC50 [3] was > 100 µM (inactive).
`CCc1cc2c(=O)n(Cc3ccccc3)c(SC3CCOC3=O)nc2s1` (stereo not given) was tested, and the AC50 [1] was 46.4 µM and the AC50 [3] was > 100 µM (inactive).
Work on `CC(C)n1nnnc1C1c2ccccc2C(=O)N1CCOc1ccccc1` (stereo not given) yielded an AC50 [1] of 5.87 µM.
`Cc1ccc(Cl)cc1N1CCN(C(=O)c2ccc3nc[nH]c3c2)CC1` was tested, and the AC50 [2, 4] was greater than 100 µM and the AC50 [3] was > 100 µM (inactive).
`CN1CCN(C(=O)C[C@@H]2CC[C@@H]3[C@H](COC[C@H](O)CN3C(=O)Nc3ccc(Cl)cc3)O2)CC1` was tested, and the AC50 [2, 4] was greater than 100 µM and the AC50 [3] was > 100 µM (inactive).
With `c1ccc(CN2CCN(C3CCCSc4ccccc43)CC2)cc1` (stereo not given) the AC50 [2, 4] was 50.3 µM and the AC50 [3] was > 100 µM (inactive).
`O=C(Nc1ccncc1)c1ccc(S(=O)(=O)Nc2ccccc2)cc1` gave an AC50 [1] of 46.5 µM.
`O=C(Nc1ccccc1N1CCOCC1)C1CCCCN1S(=O)(=O)c1ccccc1` (stereo not given) gave an AC50 [1] greater than 100 µM.
`COc1cc(C(N)=O)cc(Br)c1OCc1ccccc1` was tested, and the AC50 [2, 4] was greater than 100 µM and the AC50 [3] was > 100 µM (inactive).
With `CCc1ccc(C(=O)Nc2cccnc2Oc2ccc(Cl)cc2)cc1` the AC50 [2, 4] was greater than 100 µM and the AC50 [3] was > 100 µM (inactive).
For `COc1cc(NC(=O)C(c2ccccc2)c2ccccc2)c(C(=O)O)cc1OC`, the AC50 [1] was 36.4 µM and the AC50 [3] was > 100 µM (inactive).
`O=C(Nc1ccc(F)cc1)N1CCCCN2[C@@H](CO)[C@H](c3ccc(-c4ccncc4)cc3)[C@@H]2C1` was tested, and the AC50 [2, 4] was greater than 100 µM and the AC50 [3] was > 100 µM (inactive).
With `C[C@@H]1CCCCO[C@@H](CN(C)C(=O)c2ccccc2)[C@H](C)CN([C@@H](C)CO)C(=O)c2cc(NC(=O)c3ccccc3)ccc2O1` the AC50 [2, 4] was greater than 100 µM and the AC50 [3] was > 100 µM (inactive).
`COc1ccc(CCCc2nc3ccccc3[nH]2)cc1` was tested, and the AC50 [2, 4] was greater than 100 µM and the AC50 [3] was > 100 µM (inactive).
With `CCOC(=O)c1nc(C)sc1-c1ccnn1S(=O)(=O)c1cccc(Cl)c1` the AC50 [2, 4] was 52.2 µM and the AC50 [3] was > 100 µM (inactive).
For `COc1ccc(OC2C(=O)N(Cc3ccc4c(c3)OCO4)C2c2cccs2)cc1` (stereo not given), the AC50 [2, 4] was greater than 100 µM and the AC50 [3] was > 100 µM (inactive).
With `COc1ccc(NC(=O)Nc2cccc3c2O[C@H](CN(C)S(=O)(=O)c2ccc(Cl)cc2)[C@H](C)CN([C@@H](C)CO)C3=O)cc1` the AC50 [2, 4] was greater than 100 µM and the AC50 [3] was > 52 µM (inactive).
With `COc1cc(OC)nc(Oc2ccccc2C(=O)Oc2ccc(C)cc2)n1` the AC50 [1] was 45.6 µM and the AC50 [3] was > 100 µM (inactive).
In the case of `O=c1[nH]c(C2CCN(S(=O)(=O)c3ccc4c(c3)OCCO4)CC2)nc2c1nnn2Cc1ccccc1F`, the AC50 [2, 4] is reported as greater than 100 µM and the AC50 [3] is reported as > 100 µM (inactive).
For `C=CCN(c1ccccc1)S(=O)(=O)c1cccc2cccnc12`, the AC50 [1] was 4.71 µM.
`COc1cccc(NC(=O)CSc2nc3c(sc4ccccc43)c(=O)n2CCN(C)C)c1` was tested, and the AC50 [1] was greater than 100 µM.
For `O=C(Nc1ccccc1Cl)c1ccc2c(c1)N(Cc1ccc(F)cc1)C(=O)CS2=O` (stereo not given), the AC50 [1] was 50 µM and the AC50 [3] was > 100 µM (inactive).
In the case of `Cn1nc(C(=O)Nc2cccc(S(=O)(=O)N3CCCCC3)c2)c2ccccc2c1=O`, the AC50 [2, 4] is reported as greater than 100 µM and the AC50 [3] is reported as > 100 µM (inactive).
For `O=C1c2cccc(OCC(=O)N3CCCc4ccccc43)c2CCN1Cc1cccnc1`, the AC50 [2, 4] was greater than 100 µM and the AC50 [3] was > 100 µM (inactive).
For `Cc1sc2ncnc(N3CCCC(C)C3)c2c1C` (stereo not given), the AC50 [2, 4] was greater than 100 µM and the AC50 [3] was > 100 µM (inactive).
`O=S(=O)(NCC1CCCO1)c1ccc(-c2ccc(Cl)cc2)cc1` (stereo not given) gave an AC50 [1] of 31.8 µM.
With `CN(CCOc1ccccc1)C(=O)c1ccc(OC2CCN(C(=O)C3CC3)CC2)cc1` the AC50 [2, 4] was greater than 100 µM and the AC50 [3] was > 100 µM (inactive).
For `Cc1nnc2sc(SCC(=O)Nc3ccc(Br)cc3)nn2c1=O`, the AC50 [1] was greater than 100 µM and the AC50 [3] was > 100 µM (inactive).
Work on `Cc1cccc(N2CCN(Cc3nc(-c4ccc(F)cc4F)oc3C)CC2)n1` yielded an AC50 [1] of 3.83 µM.
`O=C(c1ccc(N2CCCCC2)c([N+](=O)[O-])c1)N1CCN(c2ccccn2)CC1` showed an AC50 [1] greater than 100 µM.
Compound `CC(C)(C)c1ccc(-c2noc(CCC(=O)NCc3ccco3)n2)cc1` has an AC50 [1] of 2.76 µM.
In the case of `CCCCNc1ccc2c(c1)OC[C@@H](Cc1ccccc1)NS2(=O)=O`, the AC50 [2, 4] is reported as 44.4 µM and the AC50 [3] is reported as > 100 µM (inactive).
In the case of `O=C(Cc1c(Cl)cccc1Cl)Nc1cccc(S(=O)(=O)N2CCOCC2)c1`, the AC50 [2, 4] is reported as 48.6 µM and the AC50 [3] is reported as > 100 µM (inactive).
For `CCOc1ccc(OCCn2c(=S)[nH]c3c(N)ncnc32)cc1`, the AC50 [1] was 17.3 µM and the AC50 [3] was > 100 µM (inactive).
`Cc1noc(C)c1S(=O)(=O)N(Cc1ccccc1)C(C)C` was tested, and the AC50 [1] was greater than 100 µM.
`COCC#Cc1ccc2c(c1)O[C@H](CN(C)C(=O)c1ccccc1)[C@@H](C)CN([C@H](C)CO)S2(=O)=O` showed an AC50 [1] greater than 100 µM.
With `c1ccc(-n2c(SCc3nc(-c4cccs4)no3)nnc2-c2ccco2)cc1` the AC50 [2, 4] was greater than 100 µM and the AC50 [3] was > 100 µM (inactive).
For `O=C(CSc1ccccc1)Nc1cccc(NC(=O)c2ccco2)c1`, the AC50 [2, 4] was greater than 100 µM and the AC50 [3] was > 100 µM (inactive).
For `COc1ccc(-c2nc(NC(C)=O)sc2-c2ccccc2)cc1`, the AC50 [2, 4] was greater than 100 µM and the AC50 [3] was > 100 µM (inactive).
In the case of `Cc1ccc(C2(c3noc(CN(C)Cc4cccnc4)n3)CCCC2)cc1`, the AC50 [2, 4] is reported as greater than 100 µM and the AC50 [3] is reported as > 100 µM (inactive).
With `CCn1c(NC(=O)c2nn(C)cc2Br)nc2ccccc21` the AC50 [1] was 45.6 µM, the AC50 [2, 4] was 50.3 µM and the AC50 [3] was > 100 µM (inactive).
`O=C(c1cnc(Cc2c[nH]c3ccccc23)c(I)c1)N1CCCCC1` was tested, and the AC50 [2, 4] was greater than 100 µM and the AC50 [3] was > 100 µM (inactive).
For `Clc1ccc2nc(CN3CCCc4ccccc43)cn2c1`, the AC50 [2, 4] was 36.1 µM and the AC50 [3] was > 100 µM (inactive).
With `CC(NCc1ccc(S(N)(=O)=O)cc1)C(=O)Nc1cc([N+](=O)[O-])ccc1Cl` (stereo not given) the AC50 [1] was greater than 100 µM and the AC50 [3] was > 100 µM (inactive).
With `Cc1ccccc1NS(=O)(=O)c1cc(C(=O)NCCC2=CCCCC2)ccc1C` the AC50 [1] was greater than 100 µM.
For `O=C(Nc1cccc(Oc2ccc3c(c2)C(=O)NC3=O)c1)c1cccs1`, the AC50 [2, 4] was greater than 100 µM and the AC50 [3] was > 100 µM (inactive).
`Cc1cc(C)cc(NC(=O)c2cccc(NC(=O)c3ccco3)c2)c1` was tested, and the AC50 [2, 4] was greater than 100 µM and the AC50 [3] was > 100 µM (inactive).
With `Cc1cc(NC(=O)CN2CCN(c3cccc(Cl)c3)CC2)no1` the AC50 [2, 4] was 29.5 µM and the AC50 [3] was > 100 µM (inactive).
With `O=S(=O)(c1ccccc1)N1CC[C@@H]2[C@H](CO)Nc3ccc(Br)cc3[C@@H]21` the AC50 [2, 4] was greater than 100 µM and the AC50 [3] was > 100 µM (inactive).
In the case of `O=C(Nc1ccccc1N1CCN(C(=O)c2ccccc2)CC1)c1ccc([N+](=O)[O-])o1`, the AC50 [1] is reported as 1.97 µM and the AC50 [3] is reported as > 100 µM (inactive).
For `CC(C)Cn1c(=O)c2ccccc2c2ccccc2c1=O`, the AC50 [1] was 7.44 µM and the AC50 [3] was > 100 µM (inactive).
With `O=C(O)c1cc(-c2ccc(Cl)s2)nc2ccccc12` the AC50 [2, 4] was greater than 100 µM and the AC50 [3] was > 100 µM (inactive).
`CC(=O)c1c(N2CCOCC2)nc2ccc(Cl)cc2c1-c1ccccc1` gave an AC50 [1] greater than 100 µM.
In the case of `CCOc1ccccc1NC(=O)c1ccc2ccccc2c1`, the AC50 ([1]; E. coli wild-type GFP strain growth, fluorescence, 24 h, measured here: RFP h34 mutant, test 1) is reported as greater than 100 µM, the AC50 ([2]; measured here: OD600, test 1) is reported as 38.3 µM and the AC50 ([3]; measured here: GFP wild-type, test 1) is reported as greater than 100 µM.
`CCCC(=O)Nc1sc2c(c1C(=O)Nc1ccccn1)CCCC2` was tested, and the AC50 [1] was greater than 100 µM.
With `N#Cc1cccc(-c2ccc3c(c2)[C@H]2[C@H](CCN2C(=O)c2ccccc2F)[C@H](CO)N3)c1` the AC50 [2, 4] was greater than 100 µM and the AC50 [3] was > 100 µM (inactive).
Work on `COC(=O)c1cc(S(=O)(=O)NCc2ccc3c(c2)OCO3)cn1C` yielded an AC50 [1] of 52.4 µM.
